Laboratory results taken from patent US9532956B2, “PH sensitive biodegradable polymeric particles for drug delivery” (Massachusetts Institute of Technology, priority 2009, dated 2017).

Tested on: Red blood cells (RBCs)
Settings: pH 7.4
Procedure: The red blood cells (RBCs) were separated from the whole blood or anticoagulant solution by centrifuging the whole blood at 800 rcf for 15 min. The supernatant was discarded and the RBCs were washed thrice with phosphate buffered saline (PBS). The stock of RBCs was prepared by mixing three volumes of the centrifuged RBCs with 11 parts of the phosphate buffered saline (PBS) with pH adjusted to 7.4, 6.5, or 5.4, and 100 μL of this stock was used for 1 ml of the sample. RBCs were mixed with Triton X-100 (1%, w/v) (positive control); with phosphate buffered saline (PBS) with pH adjusted to 7.4, 6.5, or 5.4 (negative control); and respective concentrations of amines, PLH and protamine at different pH (7.4, 6.5, or 5.4). Samples were incubated at 37° C. for 24 h on a tube shaker. The samples were centrifuged at 800 rcf for 15 min to separate intact RBCs. The supernatant was collected and kept for 30 min at room temperature to oxidize hemoglobin (Hb) and then the absorbance of Oxy-Hb was measured spectrophotometrically at 540 nm. The relative hemolysis efficiency was calculated as the percentage of released hemoglobin by the samples to that by Triton X-100. The percent hemolysis was calculated using the equation of a straight line, y=mx+c, where % hemolysis (x)=[optical density (y)−negative control optical density (c)]/[(positive control optical density−negative control optical density)/100] […]

Compound	% hemolysis versus pH
N[C@@H](Cc1c[nH]cn1)C(=O)N[C@@H](Cc1c[nH]cn1)C(=O)N[C@@H](Cc1c[nH]cn1)C(=O)N[C@@H](Cc1c[nH]cn1)C(=O)N[C@@H](Cc1c[nH]cn1)C(=O)N[C@@H](Cc1c[nH]cn1)C(=O)O [PLH, poly-L-histidine (PLH, 6-mer)]	maximum hemolytic properties at endosomal pH 5.4
protamine	more hemolytic properties at physiological pH 7.4
